Experimental data published in US12384800B2, “Antitumoral compounds” (priority 2017, dated 2025).

Assays:
[1] = MTD (Maximum Tolerated Dose) determination, single iv administration; type: in vivo; details: mice, iv/SD (single dose), monitored up to 14 days
Description: (§1) Female CD-1 or Athymic Nude-Fox1 nu/nu mice (Envigo) were utilized for all experiments. […] Animals were acclimated for five days prior to being individually tattoo-identified. Animal protocols were reviewed and approved according to the regional Institutional Animal Care and Use Committees.
(§2) Mice were randomly allocated into experimental groups and intravenously administered, once for the MTD (Maximum Tolerated Dose) determination or one administration a week during three consecutive weeks, for the MTMD (Maximum Tolerated Multiple Dose) determination study. The animals were administered with white formulation or with compound dissolved in the experimental formulation at different concentrations. The volume administered was always […]. Once administered, animals were monitored for clinical signs of systemic toxicity, changes in body weight and mortality up to 14 days after the administration.

[2] = MTMD (Maximum Tolerated Multiple Dose) determination, iv weekly x 3; type: in vivo; details: mice; iv/Q7d × 3
Description: as §1, §2

HT1080 tumors = assay: Human fibrosarcoma xenograft, total diameter (tumor + leg); details: iv Days 0, 7 and 14
[3] = system: MDA-MB-231 cells (breast adenocarcinoma); assay: cells; details: Homo sapiens, MDA-MB-231, 72 h
Method in brief: (§3)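 Cells seeded at 5000/well, attached 18 h, then exposed 72 h to ten 2/5 serial dilutions (10 to 0.003 μg/mL; 1% DMSO final) in triplicate; time-zero plate fixed. SRB staining after glutaraldehyde fixation; growth effects by NCI algorithm, four-parameter logistic fit.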

[4] = system: PSN1 cells (pancreas adenocarcinoma); assay: cells; details: Homo sapiens, PSN1, 72 h, read-out: TGI
Method in brief: as §3

[5] = system: HT29 cells (colorectal adenocarcinoma); assay: cells; details: Homo sapiens, HT-29, 72 h
Method in brief: as §3

[6] = system: A549 cells (lung carcinoma, NSCLC); assay: cells; details: Homo sapiens, A549, 72 h
Method in brief: as §3

COc1c(C)cc2c(c1O)[C@@H]1[C@@H]3[C@@H]4SC[C@]5(N[C@@H](CO)Cc6c5[nH]c5ccccc65)C(=O)OC[C@@H](c5c6c(c(C)c(OC(C)=O)c54)OCO6)N3[C@@H](O)[C@H](C2)N1C [Compound 4-R]
MTD [1]: 0.25 mg/kg
MTMD [2]: 0.30 mg/kg
Total diameter (tumor + leg) (HT1080 tumors; Day 0, PM01183 […], 4-R 0.30 mg/kg): 8.1 mm
Total diameter (tumor + leg) (HT1080 tumors; Day 2, PM01183 […], 4-R 0.30 mg/kg): 8.6 mm
Total diameter (tumor + leg) (HT1080 tumors; Day 7, PM01183 […], 4-R 0.30 mg/kg): 8.7 mm
Total diameter (tumor + leg) (HT1080 tumors; Day 9, PM01183 […], 4-R 0.30 mg/kg): 9.0 mm
Total diameter (tumor + leg) (HT1080 tumors; Day 14, PM01183 […], 4-R 0.30 mg/kg): 9.3 mm
Total diameter (tumor + leg) (HT1080 tumors; Day 18, PM01183 […], 4-R 0.30 mg/kg): 10.3 mm
Total diameter (tumor + leg) (HT1080 tumors; Day 21, PM01183 […], 4-R 0.30 mg/kg): 11.5 mm
Total diameter (tumor + leg) (HT1080 tumors; Day 23, PM01183 […], 4-R 0.30 mg/kg): 13.3 mm
Total diameter (tumor + leg) (HT1080 tumors; Day 25, PM01183 […], 4-R 0.30 mg/kg): 15.8 mm
Total diameter (tumor + leg) (HT1080 tumors; Day 28, 4-R 0.30 mg/kg): 18.0 mm

COc1c(C)cc2c(c1O)[C@@H]1[C@@H]3[C@@H]4SC[C@]5(N[C@H](CO)Cc6c5[nH]c5ccccc65)C(=O)OC[C@@H](c5c6c(c(C)c(OC(C)=O)c54)OCO6)N3[C@@H](O)[C@H](C2)N1C [Compound 4-S]
MTD [1]: 1.0 mg/kg
Total diameter (tumor + leg) (HT1080 tumors; Day 0.0, compound C 3.0 mg/kg, 4-S […], 12-S […]): 7.5 mm
Total diameter (tumor + leg) (HT1080 tumors; Day 2.0, compound C 3.0 mg/kg, 4-S […], 12-S […]): 7.7 mm
Total diameter (tumor + leg) (HT1080 tumors; Day 5.0, compound C 3.0 mg/kg, 4-S […], 12-S […]): 8.3 mm
Total diameter (tumor + leg) (HT1080 tumors; Day 7.0, compound C 3.0 mg/kg, 4-S […], 12-S […]): 8.8 mm
Total diameter (tumor + leg) (HT1080 tumors; Day 9.0, compound C 3.0 mg/kg, 4-S […], 12-S […]): 8.4 mm
Total diameter (tumor + leg) (HT1080 tumors; Day 12.0, compound C 3.0 mg/kg, 4-S […], 12-S […]): 8.4 mm
Total diameter (tumor + leg) (HT1080 tumors; Day 14.0, compound C 3.0 mg/kg, 4-S […], 12-S […]): 9.6 mm
Total diameter (tumor + leg) (HT1080 tumors; Day 16.0, compound C 3.0 mg/kg, 4-S […], 12-S […]): 10.0 mm
Total diameter (tumor + leg) (HT1080 tumors; Day 19.0, compound C 3.0 mg/kg, 4-S […], 12-S […]): 10.4 mm
Total diameter (tumor + leg) (HT1080 tumors; Day 21.0, compound C 3.0 mg/kg, 4-S […], 12-S […]): 12.1 mm
Total diameter (tumor + leg) (HT1080 tumors; Day 23.0, compound C 3.0 mg/kg, 4-S […], 12-S […]): 12.7 mm

COc1ccc2[nH]c3c(c2c1)C[C@H](CO)N[C@]31CS[C@@H]2c3c(OC(C)=O)c(C)c4c(c3[C@H](COC1=O)N1[C@@H]2[C@H]2c3c(cc(C)c(OC)c3O)C[C@@H]([C@@H]1O)N2C)OCO4 [Compound 19-R]
CC50 ([3]; read-out: LC50): > 123 nM
IC (total growth inhibition) ([3]; read-out: TGI): 0.00135 µM
IC (total growth inhibition) [4]: 0.00135 µM
CC50 ([5]; read-out: LC50): > 123 nM
IC (total growth inhibition) ([5]; read-out: TGI): 0.00172 µM
CC50 ([6]; read-out: LC50): > 123 nM
IC (total growth inhibition) ([6]; read-out: TGI): 0.00356 µM
MTD at 14 days ([1]; female, mouse, in vivo): 0.15 mg/kg
MTMD [2]: 0.15 mg/kg
